Data on 2 compounds can be found in publication PMC8927117, “Structural Insight into the MCM double hexamer activation by Dbf4-Cdc7 kinase” (Nature Communications, 2022).

The test system of experiment [1] is T1, MCM double hexamer (MCM-DH, Mcm2-7).
T1 construct: endogenous double hexamer from G1 chromatin, TEV-3xFLAG tag on Mcm7 or Mcm2
In words: cryo-EM structure. Also on record: species or system Saccharomyces cerevisiae. The conditions noted are these: with DDK bound, nucleotide-binding pockets of MCM subunits.

The next experiment has as its target T2, DDK (Dbf4-Cdc7 kinase) (Saccharomyces cerevisiae, UniProt P06243).
T2 construct: Dbf4 704 residues; with DDK kinase regulatory subunit DBF4
Put plainly: cryo-EM structure. Type of experiment: binding. The conditions noted are these: bound to MCM double hexamer, glutaraldehyde Grafix, 1 mM ATP-γ-S, 8 mM Mg(OAc)2; Cdc7 active center.

T2 sequence (P06243 whole entry): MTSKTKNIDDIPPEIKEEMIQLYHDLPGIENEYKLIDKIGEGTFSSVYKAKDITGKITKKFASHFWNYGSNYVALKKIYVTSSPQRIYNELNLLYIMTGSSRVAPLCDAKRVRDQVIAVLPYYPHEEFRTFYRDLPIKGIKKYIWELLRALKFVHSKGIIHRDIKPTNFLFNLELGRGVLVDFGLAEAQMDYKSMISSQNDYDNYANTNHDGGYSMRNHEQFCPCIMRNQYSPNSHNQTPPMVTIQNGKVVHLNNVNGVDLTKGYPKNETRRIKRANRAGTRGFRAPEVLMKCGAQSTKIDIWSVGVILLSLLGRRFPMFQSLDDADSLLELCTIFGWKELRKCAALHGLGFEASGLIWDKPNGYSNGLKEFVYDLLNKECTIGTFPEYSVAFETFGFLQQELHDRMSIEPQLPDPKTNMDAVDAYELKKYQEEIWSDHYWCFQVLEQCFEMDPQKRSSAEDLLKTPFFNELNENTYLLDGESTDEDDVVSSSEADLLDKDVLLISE
T2 sequence (P32325 whole entry partner): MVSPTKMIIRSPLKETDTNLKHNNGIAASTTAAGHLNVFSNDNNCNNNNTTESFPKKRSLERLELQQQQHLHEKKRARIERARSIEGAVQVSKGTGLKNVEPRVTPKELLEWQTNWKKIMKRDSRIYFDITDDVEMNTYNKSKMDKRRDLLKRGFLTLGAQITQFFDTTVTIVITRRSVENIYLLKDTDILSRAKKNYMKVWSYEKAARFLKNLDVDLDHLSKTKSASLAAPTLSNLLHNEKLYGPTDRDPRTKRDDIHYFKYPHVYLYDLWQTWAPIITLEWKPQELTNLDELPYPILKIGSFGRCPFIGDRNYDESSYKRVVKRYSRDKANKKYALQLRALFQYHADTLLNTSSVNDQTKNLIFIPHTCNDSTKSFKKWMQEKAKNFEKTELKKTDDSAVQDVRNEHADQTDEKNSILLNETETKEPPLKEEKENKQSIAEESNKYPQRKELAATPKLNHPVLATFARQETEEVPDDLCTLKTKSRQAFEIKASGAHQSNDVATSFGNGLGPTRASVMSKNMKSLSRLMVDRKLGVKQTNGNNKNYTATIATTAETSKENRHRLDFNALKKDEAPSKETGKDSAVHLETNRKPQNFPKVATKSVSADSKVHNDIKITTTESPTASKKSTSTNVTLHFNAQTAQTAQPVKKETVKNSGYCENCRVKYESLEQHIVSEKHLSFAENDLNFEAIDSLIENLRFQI

`Nc1ncnc2c1ncn2[C@@H]1O[C@H](COP(=O)(O)OP(=O)(O)O)[C@@H](O)[C@H]1O` [ADP]: the cryo-EM structure result in experiment [1] (no ADP added) is “nucleotide-binding pockets of MCM subunits were modeled as ATP-γ-S or ADP”.
Consider `Nc1ncnc2c1ncn2[C@@H]1O[C@H](COP(=O)(O)OP(=O)(O)OP(O)(O)=S)[C@@H](O)[C@H]1O` [ATP-γ-S], for which the cryo-EM structure entry is listed as “Thr506, is situated close to the γ-phosphate of the ATP-γ-S nucleotide in the active center” on DDK (Dbf4-Cdc7 kinase) and “nucleotide-binding pockets of MCM subunits were modeled as ATP-γ-S or ADP” in experiment [1] (1 mM ATP-γ-S).
